Experimental data reported in patent publication US12503438B2, “Compounds for the treatment of kinase-dependent disorders” (Exelixis, Inc., priority 2019, dated 2025).

Biological target: T1, AXL (Homo sapiens, UniProt P30530)
T1 construct: endogenous in cells; host or cells: A-172 glioblastoma cells (ATCC #CRL-1620)
T1 sequence (P30530 26-894): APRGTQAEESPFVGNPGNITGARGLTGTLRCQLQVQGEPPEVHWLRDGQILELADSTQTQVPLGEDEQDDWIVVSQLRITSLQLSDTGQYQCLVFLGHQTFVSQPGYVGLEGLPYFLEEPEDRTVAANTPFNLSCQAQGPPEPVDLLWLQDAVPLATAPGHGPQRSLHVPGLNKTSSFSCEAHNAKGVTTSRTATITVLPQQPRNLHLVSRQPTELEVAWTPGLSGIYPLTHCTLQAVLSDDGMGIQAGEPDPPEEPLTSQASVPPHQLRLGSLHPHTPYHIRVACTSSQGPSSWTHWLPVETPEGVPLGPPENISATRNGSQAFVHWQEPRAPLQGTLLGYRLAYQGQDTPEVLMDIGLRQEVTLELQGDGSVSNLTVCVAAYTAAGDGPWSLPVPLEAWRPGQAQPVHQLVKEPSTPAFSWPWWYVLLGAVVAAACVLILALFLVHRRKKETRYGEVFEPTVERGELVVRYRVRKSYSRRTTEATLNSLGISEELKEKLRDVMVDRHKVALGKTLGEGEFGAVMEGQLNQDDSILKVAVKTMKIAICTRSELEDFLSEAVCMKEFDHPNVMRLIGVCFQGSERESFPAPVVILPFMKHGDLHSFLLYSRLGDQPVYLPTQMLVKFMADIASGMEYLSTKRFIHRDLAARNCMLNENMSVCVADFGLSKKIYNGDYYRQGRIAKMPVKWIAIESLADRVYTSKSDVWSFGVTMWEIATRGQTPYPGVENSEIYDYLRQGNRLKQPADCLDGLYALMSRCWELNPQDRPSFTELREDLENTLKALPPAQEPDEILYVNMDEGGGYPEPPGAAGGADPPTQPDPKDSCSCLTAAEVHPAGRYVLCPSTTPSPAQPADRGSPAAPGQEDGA
Experiment: AXL autophosphorylation ELISA in A-172 cells
Type: cell-based
Details: cellular activity, Gas6-stimulated, phospho-AXL ELISA
Procedure: A-172 glioblastoma cells (ATCC #CRL-1620) were seeded at 2.5×10^5 cells/well onto 24-well plates (Greiner #662165), in DMEM (Thermo Fisher #11995-040) containing 10% FBS (Thermo Fisher #26140-079), 1% MEM NEAA (Thermo Fisher #11140-050), 1% GlutaMax (Thermo Fisher #35050-061) and 1% Penicillin Streptomycin (Thermo Fisher #15140-122). A-172 cells were incubated at 37° C., 5% CO2 for 24 h and then starved for 24 h in serum-free medium. Test compounds were serially diluted to produce an 8-point dose curve in fresh serum-free medium to a final concentration of 0.3% DMSO (vehicle) and added to the cells and incubated for 1 h. Cells were then stimulated with 1 μg/mL recombinant human Gas6 (R&D Systems #885-GSB-500) for 15 min, washed with cold PBS and immediately lysed with 150 μL of cold 1× lysis buffer [20 mM Tris, 137 mM sodium chloride, 2 mM EDTA, 10% glycerol, 1% NP-40 alternative, 1 mM activated sodium orthovanadate, 1 mM PefaBloc SC (Sigma-Aldrich #11429868001), protease/phosphatase inhibitor tablet (Thermo Fisher #A32959)]. Lysates were collected and 100 μL/well added into the human phospho-AXL DuoSet IC ELISA (R&D Systems #DYC2228-2). Assay was performed according to manufacturer's instructions and sample phospho-AXL concentrations were extrapolated using human phospho-AXL control (R&D Systems #841645) as a standard. Positive control wells (100% activity) contained Gas6-stimulated, DMSO-treated cell lysates. Negative control wells (0% activity) contained Gas6-stimulated, reference inhibitor-treated cell lysates. IC50 values were calculated by nonlinear regression analysis using a 4-parameter logistic curve fit in ActivityBase XE (IDBS).

| Compound | IC50 |
| --- | --- |
| Cc1cncc(-c2ccc3c(Oc4ccc(NC(=O)C5(C(=O)Nc6ccc(F)cc6)CC5)cc4)ccnc3c2)c1 [Compound 46, 1-N′-(4-Fluorophenyl)-1-N-[4-[7-(5-methylpyridin-3-yl)quinolin-4-yl]oxyphenyl]cyclopropane-1,1-dicarboxamide] | > 300 nM |
| O=C(Nc1ccc(F)cc1)C1(C(=O)Nc2ccc(Oc3ccnc4cc(-c5cc6n(n5)CCC6)ccc34)cc2)CC1 [Compound 124, 1-N-[4-[7-(5,6-Dihydro-4H-pyrrolo[1,2-b]pyrazol-2-yl)quinolin-4-yl]oxyphenyl]-1-N′-(4-fluorophenyl)cyclopropane-1,1-dicarboxamide] | 10 to 100 nM |
| O=C(Nc1ccc(F)cc1)C1(C(=O)Nc2ccc(Oc3ccnc4cc(-c5cccnc5O)ccc34)cc2)CC1 [Compound 52, 1-N′-(4-Fluorophenyl)-1-N-[4-[7-(2-hydroxypyridin-3-yl)quinolin-4-yl]oxyphenyl]cyclopropane-1,1-dicarboxamide] | 100 to 300 nM |
| O=C(Nc1ccc(F)cc1)C1(C(=O)Nc2ccc(Oc3ccnc4cc(-c5cnn6c5CCC6)ccc34)cc2)CC1 [Compound 29, 1-N-[4-[7-(5,6-Dihydro-4H-pyrrolo[1,2-b]pyrazol-3-yl)quinolin-4-yl]oxyphenyl]-1-N′-(4-fluorophenyl)cyclopropane-1,1-dicarboxamide] | 10 to 100 nM |
| O=C(Nc1ccc(F)cc1)C1(C(=O)Nc2ccc(Oc3ccnc4cc(-c5ccnc(F)c5)ccc34)cc2)CC1 [Compound 33, 1-N′-(4-Fluorophenyl)-1-N-[4-[7-(2-fluoropyridin-4-yl)quinolin-4-yl]oxyphenyl]cyclopropane-1,1-dicarboxamide] | 10 to 100 nM |
| O=C(Nc1ccc(F)cc1)C1(C(=O)Nc2ccc(Oc3ccnc4cc(-c5ccncn5)ccc34)cc2)CC1 [Compound 114, 1-N′-(4-Fluorophenyl)-1-N-[4-(7-pyrimidin-4-ylquinolin-4-yl)oxyphenyl]cyclopropane-1,1-dicarboxamide] | 10 to 100 nM |
| Cc1cc2c(Oc3ccc(NC(=O)C4(C(=O)Nc5ccc(F)cc5)CC4)cc3)ccnc2cc1-c1ncc[nH]1 [Compound 120, 1-N′-(4-Fluorophenyl)-1-N-[4-[7-(1H-imidazol-2-yl)-6-methylquinolin-4-yl]oxyphenyl]cyclopropane-1,1-dicarboxamide] | 10 to 100 nM |
| Cc1cc(-c2ccc3c(Oc4ccc(NC(=O)C5(C(=O)Nc6ccc(F)cc6)CC5)cc4)ccnc3c2)ccn1 [Compound 30, 1-N′-(4-Fluorophenyl)-1-N-[4-[7-(2-methylpyridin-4-yl)quinolin-4-yl]oxyphenyl]cyclopropane-1,1-dicarboxamide] | 10 to 100 nM |
| CC(C)Oc1ccc(-c2ccc3c(Oc4ccc(NC(=O)C5(C(=O)Nc6ccc(F)cc6)CC5)cc4)ccnc3c2)cn1 [Compound 50, 1-N′-(4-Fluorophenyl)-1-N-[4-[7-(6-propan-2-yloxypyridin-3-yl)quinolin-4-yl]oxyphenyl]cyclopropane-1,1-dicarboxamide] | 100 to 300 nM |
| N#Cc1cc(-c2ccc3c(Oc4ccc(NC(=O)C5(C(=O)Nc6ccc(F)cc6)CC5)cc4)ccnc3c2)ccn1 [Compound 34, 1-N-[4-[7-(2-Cyanopyridin-4-yl)quinolin-4-yl]oxyphenyl]-1-N′-(4-fluorophenyl)cyclopropane-1,1-dicarboxamide] | 10 to 100 nM |

Results, then the compound that gave them:

| IC50 | Compound |
| --- | --- |
| 10 to 100 nM | O=C(Nc1ccc(F)cc1)C1(C(=O)Nc2ccc(Oc3ccnc4cc(-c5cncc(F)c5)ccc34)cc2)CC1 [Compound 45, 1-N′-(4-Fluorophenyl)-1-N-[4-[7-(5-fluoropyridin-3-yl)quinolin-4-yl]oxyphenyl]cyclopropane-1,1-dicarboxamide] |
| 10 to 100 nM | Nc1ccc(-c2ccc3c(Oc4ccc(NC(=O)C5(C(=O)Nc6ccc(F)cc6)CC5)cc4)ccnc3c2)cn1 [Compound 38, 1-N-[4-[7-(6-Aminopyridin-3-yl)quinolin-4-yl]oxyphenyl]-1-N′-(4-fluorophenyl)cyclopropane-1,1-dicarboxamide] |
| 10 to 100 nM | O=C(Nc1ccc(F)cc1)C1(C(=O)Nc2ccc(Oc3ccnc4cc(-c5cnc6[nH]ncc6c5)ccc34)cc2)CC1 [Compound 39, 1-N′-(4-Fluorophenyl)-1-N-[4-[7-(1H-pyrazolo[3,4-b]pyridin-5-yl)quinolin-4-yl]oxyphenyl]cyclopropane-1,1-dicarboxamide] |
| 10 to 100 nM | COc1cc(-c2ccc3c(Oc4ccc(NC(=O)C5(C(=O)Nc6ccc(F)cc6)CC5)cc4)ccnc3c2)ccn1 [Compound 31, 1-N′-(4-Fluorophenyl)-1-N-[4-[7-(2-methoxypyridin-4-yl)quinolin-4-yl]oxyphenyl]cyclopropane-1,1-dicarboxamide] |
| ≤ 10 nM | O=C(Nc1ccc(F)cc1)C1(C(=O)Nc2cc(F)c(Oc3ccnc4cc(-c5cnn(C(F)F)c5)ccc34)cc2F)CC1 [Compound 118, 1-N′-[4-[7-[1-(Difluoromethyl)pyrazol-4-yl]quinolin-4-yl]oxy-2,5-difluorophenyl]-1-N-(4-fluorophenyl)cyclopropane-1,1-dicarboxamide] |
| 10 to 100 nM | Cc1cc2c(Oc3c(F)cc(NC(=O)C4(C(=O)Nc5ccc(F)cc5)CC4)c(F)c3F)ccnc2cc1-c1cnn(C)c1 [Compound 110, 1-N-(4-Fluorophenyl)-1-N′-[2,3,5-trifluoro-4-[6-methyl-7-(1-methylpyrazol-4-yl)quinolin-4-yl]oxyphenyl]cyclopropane-1,1-dicarboxamide] |
| ≤ 10 nM | O=C(Nc1ccc(F)cc1)C1(C(=O)Nc2ccc(Oc3ccnc4cc(-c5cnn(C(F)F)c5)ccc34)c(F)c2)CC1 [Compound 123, 1-N′-[4-[7-[1-(Difluoromethyl)pyrazol-4-yl]quinolin-4-yl]oxy-3-fluorophenyl]-1-N-(4-fluorophenyl)cyclopropane-1,1-dicarboxamide] |
| ≤ 10 nM | O=C(Nc1ccc(F)cc1)C1(C(=O)Nc2ccc(Oc3ccnc4cc(-c5ccc(O)nc5)ccc34)cc2)CC1 [Compound 51, 1-N′-(4-Fluorophenyl)-1-N-[4-[7-(6-hydroxypyridin-3-yl)quinolin-4-yl]oxyphenyl]cyclopropane-1,1-dicarboxamide] |
| ≤ 10 nM | O=C(Nc1ccc(F)cc1)C1(C(=O)Nc2ccc(Oc3ccnc4cc(-c5ccc[n+]([O-])c5)ccc34)cc2)CC1 [Compound 109, 1-N′-(4-Fluorophenyl)-1-N-[4-[7-(1-oxidopyridin-1-ium-3-yl)quinolin-4-yl]oxyphenyl]cyclopropane-1,1-dicarboxamide] |
| ≤ 10 nM | Cn1cc(-c2ccc3c(Oc4ccc(NC(=O)C5(C(=O)Nc6ccc(F)cc6)CC5)cc4)ccnc3c2)ccc1=O [Compound 119, 1-N′-(4-Fluorophenyl)-1-N-[4-[7-(1-methyl-6-oxopyridin-3-yl)quinolin-4-yl]oxyphenyl]cyclopropane-1,1-dicarboxamide] |
| ≤ 10 nM | Cn1ccc(-c2ccc3c(Oc4ccc(NC(=O)C5(C(=O)Nc6ccc(F)cc6)CC5)cc4)ccnc3c2)cc1=O [Compound 117, 1-N′-(4-Fluorophenyl)-1-N-[4-[7-(1-methyl-2-oxopyridin-4-yl)quinolin-4-yl]oxyphenyl]cyclopropane-1,1-dicarboxamide] |
| ≤ 10 nM | CC(C)n1cc(-c2ccc3c(Oc4ccc(NC(=O)C5(C(=O)Nc6ccc(F)cc6)CC5)cc4)ccnc3c2)cn1 [Compound 21, 1-N′-(4-Fluorophenyl)-1-N-[4-[7-(1-propan-2-ylpyrazol-4-yl)quinolin-4-yl]oxyphenyl]cyclopropane-1,1-dicarboxamide] |
